Literature values in US20140079751A1, “METHOD OF USING COMPOSITE OF SILVER NANOPARTICLES AND NANOSILICATE PLATELETS TO INHIBIT GROWTH OF SILVER-RESISTANT BACTERIA” (priority 2010, published 2014).

System: silver-resistant Escherichia coli (J53pMG101)
Conditions: background statement, Escherichia coli strain J53 pMG101

silver ions
silver ion concentration the strain can survive: more than 1 mM
